Assay: Radiochemical purity (RCP) of 99mTc-depreotide kits with gentisic acid, reversed phase HPLC
Assay type: physicochemical
Conditions: when included in formulated kits
Procedure: Lyophilized kit vials were prepared containing depreotide, GA, and other components as described in Table 1. Formulations were adjusted to pH 7.4 or 8.5 (as noted) prior to lyophilization.

O=C(O)c1cc(O)ccc1O [gentisic acid, Gentisic acid]
effect on radiolabelling yield and stability of 99mTc-depreotide: decreases the radiolabelling yield and the stability

Reference: patent US6989138B2, “Stabilization of radiopharmaceutical compositions using hydrophilic thioethers and hydrophilic 6-hydroxy chromans” (Diatide, Inc., priority 2000, dated 2006)
